Laboratory results taken from US11571426B2, “Compositions for preventing or treating lupus” (CHONG KUN DANG PHARMACEUTICAL CORP., priority 2017, dated 2023).

How the values were obtained:
[1] = test system: TNFα secretion in LPS-stimulated human monocyte cell lines (THP-1); assay: Suppression of TNFα secretion in LPS-stimulated THP-1 (ELISA); format: cell-based; settings: at both 100 nM and 300 nM
Description: To identify the efficacy of the inventive compounds on suppressing a TNFα secretion in immune responses, suppression of TNFα production, which was achieved by a treatment with compounds 374, 461, 500, 530 and 532 according to the present invention in LPS-stimulated human monocyte cell lines (THP-1), was quantified by means of an enzyme immuno-assay (ELISA).
Specifically, the THP-1 cell lines (ATCC) were cultured in an RPMI-1640 medium comprising 10% FBS. The cell lines were divided into a 24 well plate at a ratio of 1×10^5 cells per well, then treated with 100 ng/mL PMA (phorbol 12-myristate 13-acetate) for 24 hours, and then differentiated into macrophage. Then, the culture medium was replaced with a new one, then treated with a test drug for 24 hours, and then treated again with 10 ng/mL LPS (E. Coli, O55:B5) for four hours for stimulation. After that, supernatant was taken and used to measure the amount of TNFα secreted from the cells by means of a Human TNFα Instant ELISA kit (eBioscience, BMS223INST) according to a protocol provided by a manufacturer.

[2] = test system: NZB/W F1 female mice; assay: BUN and serum creatinine in SLE model mouse; format: in vivo
Description: (§1) 80 NZB/W F1 female mice (four weeks old) were purchased from Jackson Laboratory and maintained in an SPF breeding room with five mice per cage. Their weight and urine protein were measured at 24 weeks after birth (right before administration), and then all the animals except those having too much urine protein were divided into groups as shown in a table 2 below such that the urine protein and weight might be evenly distributed among the groups.
(§2) Then, the mice were administered as described in the table 2 once a day for about 19 weeks from 24 weeks after birth to 42 weeks after birth.
(§3) The fresh urine of mice was collected before and after administration every two weeks, while blood collection was performed before and after administration every four weeks. The serum was prepared by centrifugation of the collected blood and then kept at −70° C.
To evaluate a kidney function of the SLE model mouse, BUN and creatine concentrations were measured from a mouse serum collected every month (at 24, 28, 32, 36 and 40 weeks old and during autopsy) by means of a Dri-CHEM 3000 colorimetric analyzer (Fuji film).

[3] = test system: NZB/W F1 female mice; assay: Serum cytokine level (Milliplex MAP kit) in SLE disease mouse; format: in vivo
Description: as §1, §2, §3
To analyze an effect of the inventive pharmaceutical composition on a change in a serum cytokine level in the SLE disease mouse, a level of GM-CSF, IFN-γ, IL-1α, IL-1β, IL-10, IL-12(p70), IL-15, IL-17a, IL-2, IL-4, IL-6, TNF-α, […], IL-22 and IL-23 in serum was measured by means of a Mouse cytokine Milliplex MAP kit (Merck Millipore), wherein the results thereof were shown in a table 3.
Data obtained from groups were compared using a Kruskal-Wallis (†p<0.05) *p<0.05 versus C group (Mann-Whitney U-test)

[4] = test system: NZB/W F1 female mice; assay: T cell populations in spleen (FACS) in SLE disease mouse; format: in vivo
Description: as §1, §2
To evaluate a pattern of immune T cell populations in spleen in the SLE disease mouse, a ratio of CD3, CD4, CD8a and CTLA4 expressions as well as a Treg proportion/Th1, Th2, Th17 and Treg master regulator (T-bet, GATA-3, ROR-γt, Foxp3) expression patterns were measured.
To that end, splenocytes were first obtained from the spleen obtained during the mouse autopsy by means of a 70 μm cell strainer (BD), and then red blood cells were hemolyzed by means of an EL buffer and washed with FACS buffer solution (5% BSA/PBS). After that, staining was performed at a concentration recommended by a manufacturer by means of PerCP-cy5.5-conjugated anti-mouse CD3 (ebioscience, Sandiego, Calif., USA), PE-Cyanine7-conjugated anti-mouse CD8a (ebioscience), FITC-conjugated anti-CD4 (BD), APC-conjugated anti-mouse CD25 (BD), PE-conjugated anti-mouse FoxP3 (BD), PE-conjugated anti-mouse RORγt (ebioscience), PE-conjugated anti-mouse T-bet (ebioscience), PE-conjugated anti-mouse GATA-3 (ebioscience), and PE-conjugated anti-mouse CTLA4 (ebioscience) antibodies.
The splenocytes and cell surface marker antibodies were immediately reacted. Before reacting FoxP3, RORγt, T-bet and GATA3 antibodies, the splenocytes were fixed by means of a FoxP3/Transcription Factor staining buffer set, then permeabilized, and then reacted with the antibodies. A ratio of CD4:CD8 in CD3 cells as well as a ratio of CD4+CD8-cells, CD4−CD8+ cells, CD4+CD8+ cells and double negative T cells were respectively measured and compared between the groups. To identify a ratio of FoxP3, RORγt, T-bet and GATA3, which were master regulators of Treg, Th17, Th1 and Th2, a ratio of CD4+CD25+FoxP3+ cells, CD4+CD25+RORγt+ cells, CD4+CD25+ T-bet+ cells and CD4+CD25+GATA3+ cells was respectively measured.

[5] = experimental groups vs control groups
[6] = experimental groups, 40 weeks old
[7] = group D, 10 mg/kg/day i.p., n =10
[8] = group E, 30 mg/kg/day i.p., n = 14
[9] = group F, 50 mg/kg/day i.p., n = 14
[10] = mice of the experimental groups
[11] = 50 mg/kg dosed group vs control group
[12] = spleen, CD3+ gated, experimental groups

In the case of `O=C(NO)c1ccc(CN(C(=O)N2CCOCC2)c2cccc(C(F)(F)F)c2)cc1` [Compound 374, N-(4-(hydroxycarbamoyl)benzyl)-N-(3-(trifluoromethyl)phenyl)morpholine-4-carboxamide], the “level of TNFα secretion” value [1] is reported as “remarkably decreased”, the BUN concentration [2, 5] is reported as “decreased” and the serum creatine concentration [2, 5] is reported as “decreased”. The BUN concentration [2, 6] was “remarkably excellent effect of reducing”, the serum creatine concentration [2, 6] was “remarkably excellent effect of reducing” and the GM-CSF in serum [3, 7] was 2.65 ± 2.65 pg/mL. For the same compound, the IFN-γ in serum [3, 7] was 1.06 ± 1.06 pg/mL, the IL17 in serum [3, 7] was 10.40 ± 3.86 pg/mL and the IL22 in serum [3, 7] was 27.05 ± 9.95 pg/mL. It also gave an IL-1α in serum [3, 7] of 371.96 ± 82.72 pg/mL, an IL-1β in serum [3, 7] of 1.27 ± 0.65 pg/mL and an IL-2 in serum [3, 7] of 1.91 ± 1.77 pg/mL. For the same compound, the IL-4 in serum [3, 7] was 1.74 ± 0.19 pg/mL, the IL-6 in serum [3, 7] was 7.21 ± 2.34 pg/mL and the IL-10 in serum [3, 7] was 25.00 ± 8.01 pg/mL. For the same compound, the “IL-12(70) in serum” value [3, 7] was 1.94 ± 1.17 pg/mL, the IL-15 in serum [3, 7] was 184.36 ± 88.58 pg/mL and the IL-23 in serum [3, 7] was 1.96 ± 1.96 pg/mL. It also gave a TGF-β in serum [3, 7] of 73356.45 ± 7258.05 pg/mL, a TNF-α in serum [3, 7] of 7.91 ± 2.67 pg/mL and a GM-CSF in serum [3, 8] of 5.32 ± 4.06 pg/mL. For the same compound, the IFN-γ in serum [3, 8] was 6.60 ± 4.07 pg/mL, the IL17 in serum [3, 8] was 21.14 ± 14.59 pg/mL and the IL22 in serum [3, 8] was 13.00 ± 4.40 pg/mL. For the same compound, the IL-1α in serum [3, 8] was 458.40 ± 90.79 pg/mL, the IL-1β in serum [3, 8] was 74.66 ± 70.56 pg/mL and the IL-2 in serum [3, 8] was 9.32 ± 4.75 pg/mL. For the same compound, the IL-4 in serum [3, 8] was 8.60 ± 6.80 pg/mL, the IL-6 in serum [3, 8] was 21.23 ± 13.62 pg/mL and the IL-10 in serum [3, 8] was 56.55 ± 39.16 pg/mL. The “IL-12(70) in serum” value [3, 8] was 74.50 ± 63.63 pg/mL, the IL-15 in serum [3, 8] was 162.41 ± 53.62 pg/mL and the IL-23 in serum [3, 8] was 100.56 ± 100.56 pg/mL. For the same compound, the TGF-β in serum [3, 8] was 58807.36 ± 6685.72 pg/mL, the TNF-α in serum [3, 8] was 16.25 ± 13.46 pg/mL and the GM-CSF in serum [3, 9] was 1.89 ± 1.89 pg/mL. It also gave an IFN-γ in serum [3, 9] of 2.07 ± 1.44 pg/mL, an IL-1α in serum [3, 9] of 629.16 ± 128.47 pg/mL and an IL-1β in serum [3, 9] of 3.86 ± 2.09 pg/mL. The IL-2 in serum [3, 9] was 4.09 ± 2.63 pg/mL, the IL-4 in serum [3, 9] was 3.70 ± 1.73 pg/mL and the IL-6 in serum [3, 9] was 5.69 ± 2.39 pg/mL. For the same compound, the “IL-12(70) in serum” value [3, 9] was 15.62 ± 12.09 pg/mL, the IL-23 in serum [3, 9] was 41.34 ± 41.34 pg/mL and the TGF-β level [3, 10] was “increased”. The “serum concentration of IL-10” value [3, 10] was “decreased”, the “serum concentration of IL-12” value [3, 10] was “decreased” and the “serum concentration of IL-15” value [3, 10] was “decreased”. For the same compound, the “serum concentration of IL-17” value [3, 10] was “decreased”, the “serum concentration of IL-22” value [3, 10] was “decreased” and the “serum concentration of TNF-α” value [3, 10] was “decreased”. For the same compound, the “ratio of CD4+T-bet+/CD4+GATA-3+” value ([4]; 30 mg/kg and 50 mg/kg dosed groups vs control group) was “more significantly decreased”, the “T-bet expression in CD4+ cells” value [4, 11] was “significantly lower” and the “ratio of CD4+CD25+ cells/CD4+ cells” value [4, 11] was “significantly lower”. The “ratio of CD25+ cells” value [4, 11] was “significantly lower”, the “ratio of CD4−CD8+ T cells” value [4, 12] was “increased” and the “ratio of CD4−CD8− T cells” value [4, 12] was “decreased”. For the same compound, the “ratio of CD4+CD25+Foxp3+, CD4+CD25+RORγt+, CD4+CD25+ T-bet+ and CD4+CD25+GATA-3+ cells” value ([4]; spleen, between the groups) was “a significance between the groups was not observed yet” and the “ratio of CD4+CD8−: CD4−CD8+ T cells” value ([4]; spleen, experimental groups) was “tended to decrease as an administered dose was increased”.
